# Like-named read-outs stand apart in the source and are kept apart here. Marks after values point to notes of the source that are not given here.
# System: C57BL/6 mouse model having STZ-HFD feed-induced diabetes combined NASH
# Assay type: in vivo
# Details: STZ+HFD C57BL/6 mice; for Fasting blood glucose / Ballooning lesion (score) / Inflammatory cell infiltration (score) / Steatosis (score) / Total score of NAS / Fibrosis percentage / % HbAC (glycosylated hemoglobin) / ALT / AST / HDL-c / LDL-c / TC / TG / Percentage of decrease in % HbAC: Mean ± SEM; for Ballooning lesion (score) / Inflammatory cell infiltration (score) / Steatosis (score) / Total score of NAS / Fibrosis percentage / % HbAC (glycosylated hemoglobin) / ALT / AST / HDL-c / LDL-c / TC / TG: 7 weeks; for Ballooning lesion (score) / Inflammatory cell infiltration (score) / Steatosis (score) / Total score of NAS: liver H&E; for Ballooning lesion (score) / Inflammatory cell infiltration (score) / Steatosis (score): NAS criteria; for Fibrosis percentage: liver sirius red staining; for % HbAC (glycosylated hemoglobin): peripheral blood; for ALT / AST / HDL-c / LDL-c / TC / TG: serum; for HbA1c % decreased by, taking the HbA1C % of the model group as the baseline value: FIG. 20; for Percentage of decrease in % HbAC: model group as baseline; for Number of animal deaths: 13 enrolled
# Procedure: According to the dosage regimen, a certain amount of Tirzepatide and BG128 were weighed and the vehicle (pH=7.0, 20 mM sodium citrate buffer) was added to formulated to the corresponding concentration.
# • Germline: C57BL/6 • Grade: SPF level • Number and gender: 30 pregnant female mice • Supplier: Shanghai Jihui Laboratory Animal Care Co., Ltd. 1.3.2 Animal Feeding Management
# Animals were kept in the barrier system, the environmental conditions in the animal room were controlled as room temperature of 20° C.-26° C. and humidity of 40%-70%, and the breeders recorded once every morning and afternoon. Free drinking and normal feeding.
# Newborn male mice were subcutaneously injected with STZ (100 μg/mouse) within 48 h of birth and fed by the female mice for four weeks, then the fasting blood glucose of the male mice was determined.
# 10 newborn male mice were selected, without STZ injection, and fed by the female mice for four weeks. The male mice were separated into cages and fed with normal maintenance feed and used as the normal control group; other mice were fed with HFD feed for one week, the fasting blood glucose of the animals was determined, and according to the fasting blood glucose and body weight, the animals were randomly grouped into: normal control group, model group, Tirzepatide—0.15 mg/kg group, BG128—0.05 mg/kg group, BG128—0.15 mg/kg group, and BG128—0.5 mg/kg group, and see Table 12 for details.
# Administration began on the first day of week 2 of HFD feed feeding, and the experiment was ended after 7 weeks of continuous administration.
# Observation was performed at the start of the experiment once a day until the end of the experiment.
# The animals were weighed once every three days from the time of feeding with HFD feed until the end of the experiment.
# The food intake of the animals was recorded from the time of feeding with HFD feed until the end of the experiment. The remaining amount was weighed before administration each time.
# The fasting blood glucose was determined using the Roche blood glucose meter after 4 weeks of breast-feeding by the female mouse (that is, before HFD feeding), before administration, and 1 week, 2 weeks, 3 weeks, 4 weeks, 5 weeks, 6 weeks and 7 weeks after administration and at the end point of experiment.
# 3 days after the last administration, the animals were weighed and fasted for 6 hours; all experimental animals were anesthetized by intraperitoneal injection of pentobarbital sodium, non-anticoagulated whole blood was collected through the orbital venous plexus, stood at room temperature for 30 minutes, and centrifuged at 5000 rpm for 5 minutes, the serum was separated and frozen at −80° C. for the biochemical determination; and EDTA-K2 anticoagulated whole blood was collected through the orbital venous plexus and placed on wet ice for the determination of HbA1C content.
# The serum sample was taken from −80° C., and the contents of ALT, AST, TG, TC, HDL-c and LDL-c in serum and HbA1C in whole blood were determined by Hitachi 7060 automatic biochemical detector, and the content of insulin was determined by enzyme-linked immunosorbent assay kit.
# The mice were dissected according to procedure. After perfusion with pre-cooled normal saline, the liver was taken, photographed, weighed, soaked in 10% formalin and fixed for pathological HE staining. Liver paraffin sections of all animals were stained with HE according to KCI pathological staining standard SOP. All the stained sections were panoramically scanned by NanoZoomer Digital Pathology (S210, Hamamaci, Japan) scanner, and then observed at different magnifications by selecting different fields of view.
# The mice were dissected according to procedure. After perfusion with pre-cooled normal saline, the liver was taken, photographed, weighed, soaked in 10% formalin and fixed for pathological sirius red (SR) staining. Liver paraffin sections were stained with SR according to KCI pathological staining standard SOP.
# [1] = 0.05 mg/kg s.c. once every three days
# [2] = 0.15 mg/kg s.c. once every three days
# [3] = 0.5 mg/kg s.c. once every three days
smiles,measurement,setting,value
CNC(CCCCNC(=O)COCCOCCOCCNC(=O)COCCOCCOCCNC(=O)CCC(NC(=O)CC(=O)O)C(=O)O)C(N)=O (centres unmarked) [BG128],Fasting blood glucose,"0.05 mg/kg group, Before HFD (baseline)",18.28 ± 1.18 mmol/L
same,Fasting blood glucose,"0.05 mg/kg group, Before administration (baseline)",25.59 ± 0.91 mmol/L
same,Ballooning lesion (score),[1],0.00 ± 0.00
same,Inflammatory cell infiltration (score),[1],0.91 ± 0.08ª
same,Steatosis (score),[1],0.52 ± 0.12ª
same,Total score of NAS,[1],1.42 ± 0.14ª
same,Fibrosis percentage,[1],1.11 ± 0.05^a %
same,% HbAC (glycosylated hemoglobin),[1],1.00 ± 0.23
same,ALT,[1],73.97 ± 9.20 U/L
same,AST,[1],155.44 ± 10.85 U/L
same,HDL-c,[1],2.30 ± 0.09 mmol/L
same,LDL-c,[1],0.56 ± 0.03^b mmol/L
same,TC,[1],3.81 ± 0.15^c mmol/L
same,TG,[1],1.09 ± 0.20^b mmol/L
same,Fasting blood glucose,"0.05 mg/kg s.c. once every three days, Administration for 1 week",15.62 ± 1.42^a mmol/L
same,Fasting blood glucose,"0.05 mg/kg s.c. once every three days, Administration for 2 weeks",14.13 ± 1.61^a mmol/L
same,Fasting blood glucose,"0.05 mg/kg s.c. once every three days, Administration for 3 weeks",16.89 ± 1.85^a mmol/L
same,Fasting blood glucose,"0.05 mg/kg s.c. once every three days, Administration for 4 weeks",12.89 ± 1.83^a mmol/L
same,Fasting blood glucose,"0.05 mg/kg s.c. once every three days, Administration for 5 weeks",18.32 ± 1.62^a mmol/L
same,Fasting blood glucose,"0.05 mg/kg s.c. once every three days, Administration for 6 weeks",21.82 ± 2.11^a mmol/L
same,Fasting blood glucose,"0.05 mg/kg s.c. once every three days, Administration for 7 weeks",18.89 ± 1.89^a mmol/L
same,Fasting blood glucose,"0.05 mg/kg s.c. once every three days, Endpoint",15.81 ± 1.83^a mmol/L
same,serum insulin concentration,"0.05 mg/kg s.c. once every three days, FIG. 19",decreased
same,"HbA1c % decreased by, taking the HbA1C % of the model group as the baseline value",[1],0.97%
same,Percentage of decrease in % HbAC,[1],−0.97 ± 0.23
same,Fasting blood glucose,"0.15 mg/kg group, Before HFD (baseline)",17.69 ± 0.81 mmol/L
same,Fasting blood glucose,"0.15 mg/kg group, Before administration (baseline)",25.71 ± 0.91 mmol/L
same,tolerance of model animals,[2],good tolerance
same,Ballooning lesion (score),[2],0.00 ± 0.00ª
same,Inflammatory cell infiltration (score),[2],0.90 ± 0.06ª
same,Steatosis (score),[2],0.46 ± 0.13ª
same,Total score of NAS,[2],1.36 ± 0.15ª
same,Fibrosis percentage,[2],1.10 ± 0.04^b %
same,% HbAC (glycosylated hemoglobin),[2],1.31 ± 0.19
same,ALT,[2],67.58 ± 7.73^a U/L
same,AST,[2],152.48 ± 6.56^a U/L
same,HDL-c,[2],1.83 ± 0.22 mmol/L
same,LDL-c,[2],0.65 ± 0.10^c mmol/L
same,TC,[2],3.25 ± 0.12^c mmol/L
same,TG,[2],0.84 ± 0.12^b mmol/L
same,Fasting blood glucose,"0.15 mg/kg s.c. once every three days, Administration for 1 week",15.43 ± 1.66^a mmol/L
same,Fasting blood glucose,"0.15 mg/kg s.c. once every three days, Administration for 2 weeks",14.61 ± 1.45^a mmol/L
same,Fasting blood glucose,"0.15 mg/kg s.c. once every three days, Administration for 3 weeks",14.83 ± 1.49^a mmol/L
same,Fasting blood glucose,"0.15 mg/kg s.c. once every three days, Administration for 4 weeks",14.52 ± 2.09^a mmol/L
same,Fasting blood glucose,"0.15 mg/kg s.c. once every three days, Administration for 5 weeks",15.75 ± 1.81^a mmol/L
same,Fasting blood glucose,"0.15 mg/kg s.c. once every three days, Administration for 6 weeks",17.88 ± 2.05^a mmol/L
same,Fasting blood glucose,"0.15 mg/kg s.c. once every three days, Administration for 7 weeks",17.26 ± 1.97^a mmol/L
same,Fasting blood glucose,"0.15 mg/kg s.c. once every three days, Endpoint",16.85 ± 2.04^a mmol/L
same,serum insulin concentration,"0.15 mg/kg s.c. once every three days, FIG. 19",statistically significant compared with the db/db-NDJ group
same,"HbA1c % decreased by, taking the HbA1C % of the model group as the baseline value",[2],0.66%
same,Percentage of decrease in % HbAC,[2],−0.66 ± 0.19
same,Fasting blood glucose,"0.5 mg/kg group, Before HFD (baseline)",18.59 ± 0.88 mmol/L
same,Fasting blood glucose,"0.5 mg/kg group, Before administration (baseline)",25.81 ± 1.08 mmol/L
same,tolerance of model animals,0.50 mg/kg s.c. once every three days,good tolerance
same,Ballooning lesion (score),[3],0.00 ± 0.00
same,Inflammatory cell infiltration (score),[3],1.03 ± 0.05ª
same,Steatosis (score),[3],0.33 ± 0.08ª
same,Total score of NAS,[3],1.36 ± 0.10ª
same,Fibrosis percentage,[3],1.07 ± 0.05^c %
same,% HbAC (glycosylated hemoglobin),[3],0.94 ± 0.25^a
same,ALT,[3],58.46 ± 5.38^b U/L
same,AST,[3],150.54 ± 6.26^a U/L
same,HDL-c,[3],2.13 ± 0.13 mmol/L
same,LDL-c,[3],0.62 ± 0.03^c mmol/L
same,TC,[3],3.53 ± 0.09^c mmol/L
same,TG,[3],0.88 ± 0.14^b mmol/L
same,Fasting blood glucose,"0.5 mg/kg s.c. once every three days, Administration for 1 week",11.39 ± 0.86^a mmol/L
same,Fasting blood glucose,"0.5 mg/kg s.c. once every three days, Administration for 2 weeks",12.82 ± 1.12^a mmol/L
same,Fasting blood glucose,"0.5 mg/kg s.c. once every three days, Administration for 3 weeks",13.35 ± 1.37^a mmol/L
same,Fasting blood glucose,"0.5 mg/kg s.c. once every three days, Administration for 4 weeks",11.39 ± 1.20^a mmol/L
same,Fasting blood glucose,"0.5 mg/kg s.c. once every three days, Administration for 5 weeks",12.31 ± 1.47^a mmol/L
same,Fasting blood glucose,"0.5 mg/kg s.c. once every three days, Administration for 6 weeks",12.17 ± 1.70^abd mmol/L
same,Fasting blood glucose,"0.5 mg/kg s.c. once every three days, Administration for 7 weeks",10.45 ± 1.34^acd mmol/L
same,Fasting blood glucose,"0.5 mg/kg s.c. once every three days, Endpoint",12.27 ± 1.61^a mmol/L
same,serum insulin concentration,"0.5 mg/kg s.c. once every three days, FIG. 19",statistically significant compared with the db/db-NDJ group
same,"HbA1c % decreased by, taking the HbA1C % of the model group as the baseline value",[3],1.04%
same,Percentage of decrease in % HbAC,[3],−1.04 ± 0.25
same,Number of animal deaths,"Group-3/Group-5, 0.15 mg/kg s.c. once every three days",0
same,Number of animal deaths,"Group-4, 0.05 mg/kg s.c. once every three days","2 (Day 45, 51)"
same,Number of animal deaths,"Group-6, 0.5 mg/kg s.c. once every three days",0
same,body weight after the first administration,"Tirzepatide 0.15 mg/kg, BG128 0.05, 0.15, 0.5 mg/kg s.c., FIG. 16",positively correlated with the administration dose
same,food intake compared with Tirzepatide,"equal dose (0.15 mg/kg s.c.), FIG. 17",lower than that of the Trizepatide administration animals in the group with the equal dose
same,effect on serum insulin compared with Tirzepatide,"equal dose (0.15 mg/kg s.c.), FIG. 19",better than that of the Tirzepatide group at an equal dose

# Source: patent US12215133B2 (BrightGene Bio-Medical Technology Co., Ltd., priority 2021, dated 2025)
